# Test results reported in ChEMBL document CHEMBL6096682, “Discovery of D-Ring-Contracted Artemisinin as a Potent Hydrophobic Tag for Targeted Protein Degradation” (J Med Chem, 2025).
# pIC50: −log10 of the molar value. The source made the active and inactive calls. The rule behind the calls is not given here.
# Experiments:
# [1] = test system: MCF7; assay: Antiproliferative activity against human MCF7 cells assessed as reduction in cell viability incubated for 48 hrs by MTT assay relative to control; format: functional
# [2] = test system: MCF7; assay: Antiproliferative activity against human MCF7 cells assessed as reduction in cell viability incubated for 48 hrs by MTT assay; format: functional, cell-based; conditions: MCF7, 48 h
# [3] = test system: MCF7; assay: Antitumor activity against human MCF7 cells xenografted in Balb/c mouse assessed as inhibition of tumor growth at 5 mg/kg, iv administered every 3 days and measured for 21 days; format: functional; conditions: MCF7, 504 h, time 21 day, read-out: TGI
# [4] = biological target: Cyclin-dependent kinase 6 (Homo sapiens) (UniProt Q00534); assay: HyT degrader activity at CDK6 in human MCF7 cells assessed as induction of CDK6 degradation at 10 uM incubated for 24 hrs by immunoblot analysis; format: cell-based
# [5] = biological target: Cyclin-dependent kinase 6 (Homo sapiens) (UniProt Q00534); assay: HyT degrader activity at CDK6 in human MCF7 cells assessed as induction of CDK6 degradation at 0.1 to 10 uM incubated for 24 hrs by immunoblot analysis; format: cell-based; conditions: dose 0.1-10 µM
# [6] = test system: MCF7; assay: Antiproliferative activity against human MCF7 cells overexpressing ER-alpha Y537S mutant assessed as reduction in cell viability incubated for 48 hrs by MTT assay; format: functional, cell-based; conditions: MCF7, 48 h
# [7] = biological target: T1, Estrogen receptor (Homo sapiens) (UniProt P03372); assay: HyT degrader activity at ER-alpha in human MCF7 cells assessed as induction of ER-alpha degradation by measuring decrease in ER-alpha level at 10 uM incubated for 48 hrs followed by drug wash-out and measured after 24 hrs by western blot analysis; format: cell-based
# T1 sequence (whole entry): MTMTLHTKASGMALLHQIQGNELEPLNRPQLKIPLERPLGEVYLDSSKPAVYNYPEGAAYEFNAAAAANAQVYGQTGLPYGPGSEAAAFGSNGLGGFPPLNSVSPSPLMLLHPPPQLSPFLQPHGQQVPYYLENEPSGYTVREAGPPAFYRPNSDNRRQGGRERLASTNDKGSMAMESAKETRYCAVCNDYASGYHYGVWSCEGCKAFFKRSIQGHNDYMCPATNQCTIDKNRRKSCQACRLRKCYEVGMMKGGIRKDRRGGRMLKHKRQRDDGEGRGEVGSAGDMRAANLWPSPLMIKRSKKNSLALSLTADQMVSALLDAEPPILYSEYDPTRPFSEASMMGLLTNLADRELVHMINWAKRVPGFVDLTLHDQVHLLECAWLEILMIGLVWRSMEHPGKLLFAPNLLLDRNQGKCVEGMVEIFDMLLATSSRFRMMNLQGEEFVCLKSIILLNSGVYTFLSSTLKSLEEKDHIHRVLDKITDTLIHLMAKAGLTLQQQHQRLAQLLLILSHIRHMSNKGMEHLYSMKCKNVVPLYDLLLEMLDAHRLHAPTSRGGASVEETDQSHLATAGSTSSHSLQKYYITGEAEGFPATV
# [8] = test system: MCF7; assay: Antiproliferative activity against human MCF7 cells overexpressing EGFR assessed as reduction in cell viability incubated for 48 hrs by MTT assay; format: functional, cell-based; conditions: MCF7, 48 h
# [9] = biological target: T1, Estrogen receptor (Homo sapiens); assay: HyT degrader activity at ER-alpha in human MCF7 cells assessed as induction of ER-alpha degradation by measuring decrease in ER-alpha level at 10 uM incubated for 48 hrs by western blot analysis; format: cell-based; set-up: scale not given: the % may be the effect or the level left
# [10] = test system: MCF7; assay: Antiproliferative activity against human MCF7 cells overexpressing ER-alpha Y537S mutant assessed as reduction in cell viability incubated for 48 hrs by MTT assay relative to control; format: functional
# [11] = test system: MCF7; assay: Antiproliferative activity against human MCF7 cells overexpressing EGFR assessed as reduction in cell viability incubated for 48 hrs by MTT assay relative to control; format: functional
# [12] = biological target: Histone deacetylase 1 (Homo sapiens) (UniProt Q13547); assay: HyT degrader activity at HDAC1 in human MCF7 cells assessed as induction of HDAC1 degradation at 10 uM incubated for 24 hrs by immunoblot analysis; format: cell-based
# [13] = biological target: T2, Protein deacetylase HDAC6 (Homo sapiens) (UniProt Q9UBN7); assay: HyT degrader activity at HDAC6 in human MCF7 cells assessed as induction of HDAC6 degradation by measuring decrease in HDAC6 level at 0.1 to 10 uM incubated for 24 hrs by immunoblot analysis; format: cell-based; conditions: dose 0.1-10 µM
# T2 sequence (whole entry): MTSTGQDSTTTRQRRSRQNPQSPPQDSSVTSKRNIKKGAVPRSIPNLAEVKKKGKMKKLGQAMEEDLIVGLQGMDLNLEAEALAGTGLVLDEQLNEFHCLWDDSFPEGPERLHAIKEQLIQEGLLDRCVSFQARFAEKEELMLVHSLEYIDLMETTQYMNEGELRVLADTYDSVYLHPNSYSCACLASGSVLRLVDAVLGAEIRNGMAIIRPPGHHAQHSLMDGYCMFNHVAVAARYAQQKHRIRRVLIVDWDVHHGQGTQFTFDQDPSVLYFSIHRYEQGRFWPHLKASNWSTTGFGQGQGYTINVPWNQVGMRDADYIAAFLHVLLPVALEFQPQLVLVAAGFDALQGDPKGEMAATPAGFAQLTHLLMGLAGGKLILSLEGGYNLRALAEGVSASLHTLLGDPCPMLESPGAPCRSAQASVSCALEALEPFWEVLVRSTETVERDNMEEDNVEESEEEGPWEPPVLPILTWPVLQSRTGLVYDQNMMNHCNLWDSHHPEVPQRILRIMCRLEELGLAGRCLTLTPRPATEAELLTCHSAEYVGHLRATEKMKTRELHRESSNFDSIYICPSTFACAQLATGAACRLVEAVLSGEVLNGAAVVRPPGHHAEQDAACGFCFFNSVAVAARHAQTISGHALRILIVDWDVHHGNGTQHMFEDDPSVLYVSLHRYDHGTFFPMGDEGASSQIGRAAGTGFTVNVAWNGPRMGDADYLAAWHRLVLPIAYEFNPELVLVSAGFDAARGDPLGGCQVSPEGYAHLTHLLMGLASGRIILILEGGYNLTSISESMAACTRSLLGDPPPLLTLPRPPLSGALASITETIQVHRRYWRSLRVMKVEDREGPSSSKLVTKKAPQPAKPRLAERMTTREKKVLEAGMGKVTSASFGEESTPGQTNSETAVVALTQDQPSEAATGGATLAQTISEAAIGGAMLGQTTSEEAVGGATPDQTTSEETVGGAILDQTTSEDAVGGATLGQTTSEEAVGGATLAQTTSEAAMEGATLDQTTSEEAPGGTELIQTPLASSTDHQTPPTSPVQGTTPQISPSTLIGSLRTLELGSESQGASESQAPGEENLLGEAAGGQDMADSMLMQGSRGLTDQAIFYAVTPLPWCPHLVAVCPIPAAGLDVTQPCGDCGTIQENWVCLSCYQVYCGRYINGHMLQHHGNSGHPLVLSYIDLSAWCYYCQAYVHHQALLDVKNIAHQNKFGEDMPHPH
# [14] = biological target: T3, Histone deacetylase (Homo sapiens) (UniProt Q13547+O15379+Q9UBN7+Q92769+Q9UQL6+Q8WUI4+Q9BY41+Q96DB2+P56524+Q9UKV0+Q969S8); assay: HyT degrader activity at HDAC in human MCF7 cells assessed as induction of HDAC degradation by measuring increase in acetylated alpha-tubulin level at 0.1 to 50 uM incubated for 24 hrs by immunoblot analysis; format: cell-based; conditions: dose 0.1-50 µM
# [15] = biological target: Histone deacetylase 1 (Homo sapiens) (UniProt Q13547); assay: HyT degrader activity at HDAC1 in human MCF7 cells assessed as induction of HDAC1 degradation by measuring decrease in HDAC1 level at 0.1 to 50 uM incubated for 24 hrs by immunoblot analysis; format: cell-based; conditions: dose 0.1-50 µM
# [16] = biological target: T3, Histone deacetylase (Homo sapiens); assay: HyT degrader activity at HDAC in human MCF7 cells assessed as induction of HDAC degradation by measuring increase in acetylated histone H3 level at 0.1 to 50 uM incubated for 24 hrs by immunoblot analysis; format: cell-based; conditions: dose 0.1-50 µM
# [17] = biological target: Histone deacetylase 2 (Homo sapiens) (UniProt Q92769); assay: HyT degrader activity at HDAC2 in human MCF7 cells assessed as induction of HDAC2 degradation by measuring decrease in HDAC2 level at 0.1 to 50 uM incubated for 24 hrs by immunoblot analysis; format: cell-based; conditions: dose 0.1-50 µM
# Sequence of Histone deacetylase 2 (Homo sapiens) (Q92769 whole entry): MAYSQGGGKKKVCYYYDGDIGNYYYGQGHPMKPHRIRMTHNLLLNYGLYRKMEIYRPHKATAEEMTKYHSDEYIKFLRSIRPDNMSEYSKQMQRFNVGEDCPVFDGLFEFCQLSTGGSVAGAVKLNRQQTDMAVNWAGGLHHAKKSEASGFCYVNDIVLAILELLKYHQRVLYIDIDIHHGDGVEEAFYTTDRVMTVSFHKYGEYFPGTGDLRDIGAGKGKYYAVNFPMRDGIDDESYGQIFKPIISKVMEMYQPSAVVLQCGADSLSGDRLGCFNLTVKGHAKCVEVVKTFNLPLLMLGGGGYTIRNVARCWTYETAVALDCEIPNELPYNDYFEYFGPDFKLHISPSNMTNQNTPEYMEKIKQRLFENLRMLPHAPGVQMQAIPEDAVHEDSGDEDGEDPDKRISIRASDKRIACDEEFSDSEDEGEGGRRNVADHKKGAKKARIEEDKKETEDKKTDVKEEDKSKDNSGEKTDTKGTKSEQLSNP
# Sequence of Cyclin-dependent kinase 6 (Homo sapiens) (Q00534 whole entry): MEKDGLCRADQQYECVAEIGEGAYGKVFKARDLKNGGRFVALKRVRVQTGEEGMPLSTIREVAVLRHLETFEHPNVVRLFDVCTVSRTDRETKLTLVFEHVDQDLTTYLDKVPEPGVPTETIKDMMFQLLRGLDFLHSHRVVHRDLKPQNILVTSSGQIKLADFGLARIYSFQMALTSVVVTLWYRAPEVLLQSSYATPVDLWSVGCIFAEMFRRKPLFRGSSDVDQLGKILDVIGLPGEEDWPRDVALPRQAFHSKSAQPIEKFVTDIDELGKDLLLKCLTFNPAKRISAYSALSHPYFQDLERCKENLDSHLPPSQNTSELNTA
# Sequence of Histone deacetylase 1 (Homo sapiens) (Q13547 whole entry): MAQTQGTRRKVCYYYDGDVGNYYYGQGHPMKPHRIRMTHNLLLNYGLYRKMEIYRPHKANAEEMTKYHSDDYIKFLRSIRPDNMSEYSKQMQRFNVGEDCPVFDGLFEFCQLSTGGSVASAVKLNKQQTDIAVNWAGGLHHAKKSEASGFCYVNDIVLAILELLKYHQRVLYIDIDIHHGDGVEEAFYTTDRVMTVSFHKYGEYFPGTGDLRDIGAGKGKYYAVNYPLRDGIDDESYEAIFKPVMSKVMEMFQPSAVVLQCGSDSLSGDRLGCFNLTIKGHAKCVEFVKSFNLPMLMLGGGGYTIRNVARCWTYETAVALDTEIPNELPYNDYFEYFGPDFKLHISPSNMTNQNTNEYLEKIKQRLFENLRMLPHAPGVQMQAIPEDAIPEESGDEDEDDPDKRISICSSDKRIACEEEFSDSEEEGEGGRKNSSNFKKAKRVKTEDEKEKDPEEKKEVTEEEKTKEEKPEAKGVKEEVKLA
smiles,measurement,setting,value
C[C@@H]1CCC2[C@]34OO[C@](C)(CCC13)O[C@@H]4O[C@]2(C)C(=O)NCCCCCCOc1ccc(C(=O)c2c(-c3ccc(O)cc3)sc3cc(O)ccc23)cc1 (stereo partly specified),inhibition (INH),[1],57.1%
same,pIC50,[2],4.34
C[C@@H]1CCC2[C@]34OO[C@](C)(CCC13)O[C@@H]4O[C@]2(C)C(=O)NCCCCOc1ccc(C(=O)c2c(-c3ccc(O)cc3)sc3cc(O)ccc23)cc1 (stereo partly specified),inhibition (INH),[1],63.5%
same,pIC50,[2],4.94
C[C@]12CC[C@@H]3c4ccc(O)cc4C[C@@H](CCCCCCCCC[S+]([O-])CCCC(F)(F)C(F)(F)F)[C@H]3[C@@H]1CC[C@@H]2O (stereo partly specified) [FULVESTRANT],inhibition in vivo at 5 mg/kg,[3],87%
"CC(=O)c1c(C)c2cnc(NCCCNC(=O)[C@@]3(C)OC4O[C@@]5(C)CCC6[C@H](C)CCC3[C@@]46OO5)nc2n(C2CCCC2)c1=O (single isomer, unassigned)",Activity,[4],73%
same,pIC50,[2],5.30
same,Activity,[5],Active
O=C(c1ccc(OCCCNC(=O)C23CC4CC(CC(C4)C2)C3)cc1)c1c(-c2ccc(O)cc2)sc2cc(O)ccc12,pIC50,[6],< 4.30
same,Activity,[7],Active
same,pIC50,[8],4.80
same,Activity,[9],77.5%
same,inhibition (INH),[10],41.7%
same,inhibition (INH),[11],57.9%
same,inhibition (INH),[1],70.8%
same,pIC50,[2],5.02
"C[C@@H]1CCC2[C@]34OO[C@](C)(CCC13)OC4O[C@]2(C)C(=O)NCCCC(=O)Nc1ccc(NC(=O)CCCCCCC(=O)NO)cc1 (single isomer, unassigned)",Activity,[12],84%
same,Activity,[13],Active
same,Activity,[14],Active
same,pIC50,[2],5.28
same,Activity,[15],Active
same,Activity,[16],Active
same,Activity,[17],Active
O=C(c1ccc(OCCN2CCCCC2)cc1)c1c(-c2ccc(O)cc2)sc2cc(O)ccc12 [RALOXIFENE],inhibition in vivo at 5 mg/kg,[3],68.8%
"C[C@@H]1CCC2[C@]34OO[C@](C)(CCC13)OC4O[C@]2(C)C(=O)NCCOc1ccc(C(=O)c2c(-c3ccc(O)cc3)sc3cc(O)ccc23)cc1 (single isomer, unassigned)",inhibition (INH),[1],42.6%
same,pIC50,[2],< 4.00
